# Results published in patent publication US7964735B2, “Insecticidal 3-acylaminobenzanilides” (Bayer Cropscience AG, priority 2005, dated 2011).
# Tested on: organic phosphorus agent- and carbamate agent-resistant Myzus persicasypii
# Assay: Test to organic phosphorus agent- and carbamate agent-resistant Myzus persicasypii (spray on eggplant)
# Assay type: in vivo
# Conditions: efficacious component concentration 500 ppm; sprayed on eggplant; 28° C.; after 7 days from spraying
# Protocol: (§1) • Sample Solution Preparation • Solvent: dimethylformamide 3 part by weight • Emulsifier: polyoxyethylene alkyl phenyl ether 1 part by weight
# (§2) To prepare a proper active compound, the active compound 1 part by weight was mixed with the above-mentioned solvent containing the above-mentioned emulsifier and the mixture was diluted with water to a prescribed concentration.
# 30 grown organic phosphorus agent- and carbamate agent-resistant Myzus persicasypii were inoculated in each vinyl pot with 6 cm diameter in which eggplant seeding was done and after 1 day from the inoculation, the above produced active compound diluted with water to have a prescribed concentration was sufficiently sprayed by a spray gun. After the spraying, the vinyl pots were left in a greenhouse at 28° C. and the insect extermination ratio was calculated after 7 days from spraying. The test was repeated two times.
row,SMILES,insecticidal ratio (insect extermination ratio) [%]
1,CCc1cc(C(F)(C(F)(F)F)C(F)(F)F)cc(C)c1NC(=O)c1cccc(NC(=O)c2cccc(Cl)c2)c1 [Compound 58],100
2,"CCc1cc(C(F)(C(F)(F)F)C(F)(F)F)cc(C)c1NC(=O)c1cccc(NC(=O)c2cnccc2C(F)(F)F)c1 [Compound 1, 3-[4-(trifluoromethyl)nicotinyl]amino-N-(2-ethyl-6-methyl-4-heptafluoroisopropylphenyl)benzamide]",100
3,CCc1cc(C(F)(C(F)(F)F)C(F)(F)F)cc(C)c1NC(=O)c1cccc(NC(=O)c2ccccc2Cl)c1 [Compound 57],100
4,CCc1cc(C(F)(C(F)(F)F)C(F)(F)F)cc(C)c1NC(=O)c1cccc(NC(=O)c2ccc(F)cc2)c1 [Compound 61],100
5,Cc1cc(C(F)(C(F)(F)F)C(F)(F)F)cc(C)c1NC(=O)c1cccc(NC(=O)c2ccc(Cl)cc2)c1F [Compound 139],100
6,CCc1cc(C(F)(C(F)(F)F)C(F)(F)F)cc(C)c1NC(=O)c1cccc(NC(=O)c2ccccc2F)c1 [Compound 63],100

# Tested on: not given
# Assay: not given
# Conditions: not given
row,SMILES,melting point [°C]
1,"Cc1cc(C(F)(C(F)(F)F)C(F)(F)F)cc(C)c1NC(=O)c1cccc(NC(=O)c2ccccc2Cl)c1 [Compound 75, 3-(2-chlorobenzoyl)amino-N-(2,6-dimethyl-4-heptafluoroisopropylphenyl)benzamide]",141 to 145

# Tested on: third stage larvae of Spodoptera litura
# Assay: Test to larvae of Spodoptera litura (leaf immersion)
# Assay type: in vivo
# Conditions: efficacious component concentration 20 ppm; batata leaves immersed; 25° C.; after 7 days; average of two dishes
# Protocol: as §1, §2
# Leaves of batata were immersed in the sample solution diluted with water to a prescribed concentration and then the solution was dried out by air and the resulting leaves were put in a laboratory dish and 10 third stage larvae of Spodoptera litura were released and put in a greenhouse at a temperature 25° C. and the leaves of batata were added on second day and fourth day and the number of dead larvae was investigated after 7 days and the ratio of the dead larvae was calculated.
# The results were the averages of two laboratory dishes for respective 1 group in this test.
row,SMILES,insecticidal ratio (ratio of the dead larvae) [%]
1,CCc1cc(C(F)(C(F)(F)F)C(F)(F)F)cc(C)c1NC(=O)c1cccc(NC(=O)c2ccccc2[N+](=O)[O-])c1 [Compound 53],100
2,CCc1cc(C(F)(C(F)(F)F)C(F)(F)F)cc(C)c1NC(=O)c1cccc(NC(=O)c2ccc(OC)cc2)c1 [Compound 60],100
3,CCc1cc(C(F)(C(F)(F)F)C(F)(F)F)cc(C)c1NC(=O)c1cccc(NC(=O)c2c(F)cc(F)cc2F)c1 [Compound 52],100
4,CCc1cc(C(F)(C(F)(F)F)C(F)(F)F)cc(C)c1NC(=O)c1cccc(NC(=O)c2cccc(Cl)c2)c1 [Compound 58],100
5,CCc1cc(C(F)(C(F)(F)F)C(F)(F)F)cc(C)c1NC(=O)c1cccc(NC(=O)c2ccc(C)cc2)c1 [Compound 64],100
6,CCc1cc(C(F)(C(F)(F)F)C(F)(F)F)cc(C)c1NC(=O)c1cccc(NC(=O)c2ccccc2Cl)c1 [Compound 38],100
7,CCc1cc(C(F)(C(F)(F)F)C(F)(F)F)cc(C)c1NC(=O)c1cccc(NC(=O)c2snnc2C)c1 [Compound 35],100
8,CCc1cc(C(F)(C(F)(F)F)C(F)(F)F)cc(C)c1NC(=O)c1cccc(NC(=O)c2ccccc2I)c1 [Compound 36],100
9,CCc1cc(C(F)(C(F)(F)F)C(F)(F)F)cc(C)c1NC(=O)c1cccc(NC(=O)c2cc(Cl)cc(Cl)c2)c1 [Compound 45],100
10,"CCc1cc(C(F)(C(F)(F)F)C(F)(F)F)cc(C)c1NC(=O)c1cccc(NC(=O)c2cnccc2C(F)(F)F)c1 [Compound 1, 3-[4-(trifluoromethyl)nicotinyl]amino-N-(2-ethyl-6-methyl-4-heptafluoroisopropylphenyl)benzamide]",100
11,CCc1cc(C(F)(C(F)(F)F)C(F)(F)F)cc(C)c1NC(=O)c1cccc(NC(=O)c2ccc(F)cc2F)c1 [Compound 56],100
12,CCc1cc(C(F)(C(F)(F)F)C(F)(F)F)cc(C)c1NC(=O)c1cccc(NC(=O)c2ccccc2C(F)(F)F)c1 [Compound 51],100
13,CCc1cc(C(F)(C(F)(F)F)C(F)(F)F)cc(C)c1NC(=O)c1cccc(NC(=O)c2ccc(Cl)c(Cl)c2)c1 [Compound 43],100
14,CCc1cc(C(F)(C(F)(F)F)C(F)(F)F)cc(C)c1NC(=O)c1cccc(NC(=O)c2ccco2)c1 [Compound 32],100
15,CCc1cc(C(F)(C(F)(F)F)C(F)(F)F)cc(C)c1NC(=O)c1cccc(NC(=O)c2c(F)cccc2F)c1 [Compound 54],100
16,CCc1cc(C(F)(C(F)(F)F)C(F)(F)F)cc(C)c1NC(=O)c1cccc(NC(=O)c2ncc(C(F)(F)F)cc2Cl)c1 [Compound 13],100
17,CCc1cc(C(F)(C(F)(F)F)C(F)(F)F)cc(C)c1NC(=O)c1cccc(NC(=O)c2cccc(F)c2F)c1 [Compound 55],100
18,CCc1cc(C(F)(C(F)(F)F)C(F)(F)F)cc(C)c1NC(=O)c1cccc(NC(=O)c2ccc(Cl)nc2)c1 [Compound 3],100
19,CCc1cc(C(F)(C(F)(F)F)C(F)(F)F)cc(C)c1NC(=O)c1cccc(NC(=O)c2cccc(Cl)c2Cl)c1 [Compound 47],100
20,CCc1cc(C(F)(C(F)(F)F)C(F)(F)F)cc(C)c1NC(=O)c1cccc(NC(=O)c2ccc(Cl)cc2Cl)c1 [Compound 44],100

row,SMILES,insecticidal ratio (ratio of the dead larvae) [%]
1,CCc1cc(C(F)(C(F)(F)F)C(F)(F)F)cc(C)c1NC(=O)c1cccc(NC(=O)c2ccccc2C)c1 [Compound 66],100
2,CCc1cc(C(F)(C(F)(F)F)C(F)(F)F)cc(C)c1NC(=O)c1cccc(NC(=O)c2cc(Cl)ccc2Cl)c1 [Compound 48],100
3,Cc1cc(C(F)(C(F)(F)F)C(F)(F)F)cc(C)c1NC(=O)c1cccc(NC(=O)c2ccccc2Cl)c1F [Compound 134],100
4,Cc1cc(C(F)(C(F)(F)F)C(F)(F)F)cc(C)c1NC(=O)c1cccc(NC(=O)c2c(F)cccc2F)c1 [Compound 72],100
5,CCc1cc(C(F)(C(F)(F)F)C(F)(F)F)cc(C)c1NC(=O)c1cccc(NC(=O)c2cccc(F)c2)c1 [Compound 62],100
6,CCc1cc(C(F)(C(F)(F)F)C(F)(F)F)cc(C)c1NC(=O)c1cccc(NC(=O)c2ccc(F)cc2)c1 [Compound 61],100
7,Cc1cc(C(F)(C(F)(F)F)C(F)(F)F)cc(C)c1NC(=O)c1cccc(NC(=O)c2ccccc2)c1 [Compound 88],100
8,CCc1cc(C(F)(C(F)(F)F)C(F)(F)F)cc(C)c1NC(=O)c1cccc(NC(=O)c2cc(Cl)sc2Cl)c1 [Compound 24],100
9,Cc1cc(C(F)(C(F)(F)F)C(F)(F)F)cc(I)c1NC(=O)c1cccc(NC(=O)c2ccccc2Cl)c1 [Compound 37],100
10,CCc1cc(C(F)(C(F)(F)F)C(F)(F)F)cc(C)c1NC(=O)c1cccc(NC(=O)c2ccc(C(F)(F)F)cc2)c1 [Compound 49],100
11,CCc1cc(C(F)(C(F)(F)F)C(F)(F)F)cc(C)c1NC(=O)c1cccc(NC(=O)c2ccc(Cl)cc2)c1 [Compound 59],100
12,Cc1cc(C(F)(C(F)(F)F)C(F)(F)F)cc(C)c1NC(=O)c1cccc(NC(=O)c2ccc(Cl)cc2)c1F [Compound 139],100
13,CCc1cc(C(F)(C(F)(F)F)C(F)(F)F)cc(C)c1NC(=O)c1cccc(NC(=O)c2c(Cl)cccc2Cl)c1 [Compound 46],100
14,CCc1cc(C(F)(C(F)(F)F)C(F)(F)F)cc(C)c1NC(=O)c1cccc(NC(=O)c2cccc(Br)c2)c1 [Compound 41],100
15,CCc1cc(C(F)(C(F)(F)F)C(F)(F)F)cc(C)c1NC(=O)c1cccc(NC(=O)c2cccs2)c1 [Compound 30],100
16,CCc1cc(C(F)(C(F)(F)F)C(F)(F)F)cc(C)c1NC(=O)c1cccc(NC(=O)c2ccccc2F)c1 [Compound 63],100
17,CCc1cc(C(F)(C(F)(F)F)C(F)(F)F)cc(C)c1NC(=O)c1cccc(NC(=O)c2ccc(OC(F)(F)F)cc2)c1 [Compound 39],100
18,CCc1cc(C(F)(C(F)(F)F)C(F)(F)F)cc(C)c1NC(=O)c1cccc(NC(=O)c2ccccc2Br)c1 [Compound 40],100
19,Cc1cc(C(F)(C(F)(F)F)C(F)(F)F)cc(C)c1NC(=O)c1cccc(NC(=O)c2ccc(Cl)cc2)c1 [Compound 77],100
20,CCc1cc(C(F)(C(F)(F)F)C(F)(F)F)cc(C)c1NC(=O)c1cccc(NC(=O)c2ccc(Br)cc2)c1 [Compound 42],100
